Experimental data taken from the supplement of paper PMC10307832.

Legend:
Assay in all cases: relative viability (nuclei count vs DMSO), 5 days (fraction); higher = more cells survive
AZ3146 + Pictilisib = compound: CN1CCC(CC1)OC2=CC(=C(C=C2)NC3=NC=C4C(=N3)N(C(=O)N4C)C5CCCC5)OC [AZ3146] + CS(=O)(=O)N1CCN(Cc2cc3nc(-c4cccc5[nH]ncc45)nc(N4CCOCC4)c3s2)CC1 [Pictilisib] (partner 1 µM)
Outline: (§1)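 Lung cancer cell lines in 1536-well plates got either a single drug or a fixed anchor-drug dose together with five library-drug doses (not always all listed) in √10 steps, by pin tool, on the day after seeding. Nuclei were counted after 5 days, and relative viability is the treated-to-vehicle ratio of nuclei counts. Values are medians of duplicate plates.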

AZ3146 + AZD7762 = compound: CN1CCC(CC1)OC2=CC(=C(C=C2)NC3=NC=C4C(=N3)N(C(=O)N4C)C5CCCC5)OC [AZ3146] + NC(=O)Nc1cc(-c2cccc(F)c2)sc1C(=O)N[C@H]1CCCNC1 [AZD7762] (partner 0.2 µM)
Outline: as §1

GSK-J4 + Olaparib = compound: CCOC(=O)CCNc1cc(N2CCc3ccccc3CC2)nc(-c2ccccn2)n1 [GSK-J4] + O=C(c1cc(Cc2n[nH]c(=O)c3ccccc23)ccc1F)N1CCN(C(=O)C2CC2)CC1 [Olaparib] (partner 8 µM)
Outline: as §1

GSK-J4 + Luminespib = compound: CCOC(=O)CCNc1cc(N2CCc3ccccc3CC2)nc(-c2ccccn2)n1 [GSK-J4] + CCNC(=O)c1noc(-c2cc(C(C)C)c(O)cc2O)c1-c1ccc(CN2CCOCC2)cc1 [Luminespib] (partner 0.01 µM)
Outline: as §1

Row | Cell Line | relative viability (AZ3146 + Pictilisib; first compound 0.08 µM) | relative viability (AZ3146 + Pictilisib; first compound 0.253 µM) | relative viability (AZ3146 + Pictilisib; first compound 0.8 µM) | relative viability (AZ3146 + Pictilisib; first compound 2.53 µM) | relative viability (AZ3146 + Pictilisib; first compound 8 µM) | relative viability (AZ3146 + AZD7762; first compound 0.08 µM) | relative viability (AZ3146 + AZD7762; first compound 0.253 µM) | relative viability (AZ3146 + AZD7762; first compound 0.8 µM) | relative viability (AZ3146 + AZD7762; first compound 2.53 µM) | relative viability (AZ3146 + AZD7762; first compound 8 µM) | relative viability (GSK-J4 + Olaparib; first compound 0.5 µM) | relative viability (GSK-J4 + Olaparib; first compound 1.581 µM) | relative viability (GSK-J4 + Olaparib; first compound 5 µM) | relative viability (GSK-J4 + Olaparib; first compound 15.81 µM) | relative viability (GSK-J4 + Olaparib; first compound 50 µM) | relative viability (GSK-J4 + Luminespib; first compound 0.5 µM) | relative viability (GSK-J4 + Luminespib; first compound 1.581 µM) | relative viability (GSK-J4 + Luminespib; first compound 5 µM) | relative viability (GSK-J4 + Luminespib; first compound 15.81 µM) | relative viability (GSK-J4 + Luminespib; first compound 50 µM)
1 | NCI-H441 | 0.46 | 0.532 | 0.467 | 0.537 | 0.503 | 1.08 | 1.31 | 1.14 | 1.09 | 0.949 | 0.605 | 0.487 | 0.406 | 0.515 | 0.422 | 0.303 | 0.298 | 0.476 | 0.394 | 0.308
2 | LCLC-97TM1 |  |  | 0.18 | 0.227 | 0.181 | 0.311 | 0.339 | 0.262 | 0.381 | 0.273 | 0.272 | 0.373 | 0.364 | 0.293 | 0.196 | 0.725 | 0.722 | 0.773 | 0.415 | 0.256
3 | NCI-H1993 | 0.806 | 0.797 | 0.788 | 0.839 | 0.762 | 0.662 | 0.695 | 0.812 | 1.01 | 0.581 | 1.21 | 0.885 | 1.1 | 0.952 | 1.01 | 0.885 | 0.803 | 0.779 | 0.525 | 0.494
4 | NCI-H1793 | 0.298 | 0.376 | 0.278 | 0.469 | 0.261 | 0.259 | 0.397 | 0.259 | 0.229 | 0.178 | 0.751 | 0.634 | 0.482 | 0.201 | 0.145 | 0.261 | 0.192 | 0.18 | 0.258 | 0.134
5 | NCI-H2087 | 1.14 | 0.926 | 0.669 | 0.968 | 0.847 | 1.18 | 1.36 | 1.22 | 1.38 | 1.16 | 0.525 | 0.535 | 0.439 | 0.542 | 0.371 | 0.172 |  | 0.166 | 0.162 | 0.174
6 | NCI-H1355 | 0.334 | 0.452 | 0.525 | 0.467 | 0.512 | 0.621 | 0.738 | 0.676 | 0.672 | 0.551 | 0.732 | 0.672 | 0.762 | 0.677 | 0.503 | 0.691 | 0.701 | 0.77 | 0.513 | 0.651
7 | RERF-LC-KJ | 0.513 | 0.53 | 0.549 | 0.696 | 0.516 | 0.879 | 0.61 | 0.883 | 0.976 | 0.972 | 0.867 | 0.928 | 0.867 | 0.814 | 0.484 | 1.23 | 1.17 | 1.31 | 1.12 | 0.584
8 | NCI-H727 | 0.324 | 0.431 | 0.328 | 0.605 | 0.316 | 0.642 | 0.575 | 0.562 | 0.568 | 0.57 | 0.597 | 0.596 | 0.581 | 0.718 | 0.472 | 0.299 | 0.402 | 0.244 | 0.336 | 0.369
9 | NCI-H1734 | 0.501 | 0.522 | 0.418 | 0.474 | 0.499 | 0.262 | 0.535 | 0.545 | 0.563 | 0.337 | 0.652 | 0.549 | 0.551 | 0.582 | 0.333 | 0.209 | 0.167 | 0.181 | 0.186 | 0.155
10 | NCI-H2126 | 0.41 | 0.483 | 0.465 | 0.517 | 0.496 | 0.932 | 1 | 0.948 | 1.16 | 0.998 | 0.912 | 0.895 | 0.966 | 0.855 | 0.762 | 0.796 | 0.867 | 0.876 | 0.82 | 0.651
11 | NCI-H1792 | 0.211 | 0.238 | 0.32 | 0.339 | 0.285 | 0.414 | 0.631 | 0.641 | 0.601 | 0.617 | 0.45 | 0.286 | 0.309 | 0.429 | 0.341 | 0.46 |  | 0.533 | 0.358 | 0.454
12 | NCI-H23 | 0.453 | 0.568 | 0.483 | 0.494 | 0.451 | 0.157 | 0.3 | 0.27 | 0.216 | 0.163 | 0.25 | 0.299 | 0.292 | 0.344 | 0.285 | 0.212 | 0.197 | 0.215 | 0.209 | 0.201
13 | EPLC-272H | 0.274 | 0.322 | 0.3 | 0.263 | 0.265 | 0.136 | 0.199 | 0.175 | 0.24 | 0.237 | 0.722 | 0.825 | 0.676 | 0.652 | 0.289 | 0.263 | 0.408 | 0.346 | 0.203 | 0.173
14 | NCI-H647 | 0.485 | 0.423 | 0.258 | 0.366 | 0.476 | 0.272 | 0.541 | 0.486 | 0.342 | 0.326 | 0.456 | 0.471 | 0.545 | 0.5 | 0.374 | 0.29 | 0.125 | 0.235 | 0.166 | 0.125
15 | NCI-H1975 | 0.266 | 0.343 | 0.305 | 0.303 | 0.304 | 0.628 |  | 0.752 | 0.778 | 0.638 | 0.729 | 0.715 | 0.579 | 0.795 | 0.849 | 0.261 | 0.202 |  | 0.178 | 0.284
